Test results published in publication PMC7303324, “Conventional Pig as Animal Model for Human Renal Drug Excretion Processes: Unravelling the Porcine Renal Function by Use of a Cocktail of Exogenous Markers” (Frontiers in Pharmacology, 2020).
Several values for one entry are separate records, joined by “and”; a condition that tells them apart may be missing. Equal values may be shown once. Read-outs that look alike come from different tables or passages of the source. Values belong to the compound of their own block, whether it stands above or below them.

Columns and labels:
[1] = design: method as in Friedli et al., 1986; conditions: pigs with induced myocardial infarction, IV 0.05 mg/kg; ref Friedli et al., 1986; cited from earlier work
plasma proteins [2] = tested on: plasma proteins; design: method as in Hsyu and Giacomini, 1985; conditions: humans; ref Hsyu and Giacomini, 1985; cited from earlier work
GFR = conditions: hypertensive patients, ref Wainer et al., 1980, cited from earlier work
ERPF and GFR = tested on: ERPF and GFR; design: method as in Epstein et al., 1985; conditions: dogs, IV administration; ref Epstein et al., 1985; cited from earlier work
[3] = humans; ref Schwarz, 1982; cited from earlier work
[4] = humans, cited from earlier work
[5] = pig, in vivo, iv
Source text: (§1) Eight healthy, stress resistant, 6-week-old male piglets (Landrace × Large White × Maximus, Seghers Hybrid®, Wuustwezel, Belgium) were recruited for this study. Upon arrival piglets were group-housed in standard pig stables (2.30 × 2.40 m) with ad libitum access to water and feed (Piggistart Opti®, Aveve, Leuven, Belgium). During the whole experimental period, stables were enriched with rubber toys, balls of different size, and cotton towels. After a 5-day acclimatization period, a double-lumen jugular catheter was inserted following the procedure described by Gasthuys et al., permitting accurate intravenous (IV) administration of the renal markers and blood collection ([Gasthuys et al., 2017b]). During anesthesia, a human stoma ring (Esteem synergy® Uro, 48 mm, ConvaTec, Belgium) was attached around the prepuce of the piglets to allow urine collection ([Gasthuys et al., 2017b]). After surgery, the pigs were housed individually to avoid displacements of the catheters and stoma rings. Catheters were flushed at least twice daily with heparinized 0.9% NaCl (50 IU/ml), and the bandages were changed daily.
(§2) After a one day recovery period, urine pouches were attached to the stoma ring just before administration of the drugs. […] Blood was sampled via the other lumen of the catheter at 0, 5, 15, 30, 45, and 60 min, and 2, 4, 6, 8, 12, 24, 36, 48, and 72 h post administration and collected into K3EDTA collection tubes (Vacutest®, Piove die Sacco, Kima, Italy). The samples were kept on ice and centrifuged (2,095 × g, 10 min, 4°C) within 2 h. Multiple timed urine collections were performed over a 48 h time period. The total volume of urine voided in each time period was registered. Aliquots of plasma were stored at ≤−80°C until analysis. Urine samples were initially stored at −20°C for 6 weeks, but were subsequently stored at −80°C for further storage.
(§3) Total plasma iohexol and PAH concentrations were quantified simultaneously using a validated ultrahigh performance liquid chromatography tandem mass spectrometry (UHPLC-MS/MS) method as previously described by [Dhondt et al. (2019)] […] The same UHPLC method was used for analysis of PAH in urine samples with slight modifications. The LLOQ was 0.25 µg/ml.
(§4) Pharmacokinetic modeling of the plasma concentration–time data was performed using Phoenix® 8.1 (Certara, Cary, NC, USA). Values below the LOQ were excluded from the dataset. […] A multiplicative error model was used. […] The estimated primary parameters were volume of distribution (Vd) and total body clearance (CLTOT). Also the following secondary parameters were calculated: elimination half-life (T1/2el), elimination rate constant (Ke), volume of distribution at steady state (Vss), and the area under the curve from time 0 h to infinity (AUC0→inf).
(§5) The cumulative amount of unchanged compound recovered in the urine (Ae) was calculated taking the sum of the amount excreted at every collection point. This amount was calculated by multiplying the observed concentration by the volume collected at every collection point.
(§6) where AUC0→inf is the area under the plasma concentration–time curve extrapolated to infinity. […] The AUC0→48h was calculated by noncompartmental analysis (NCA) using the linear up-log down trapezoidal method. The nonrenal clearance (CLNR) was obtained by subtracting the CLR from CLTOT. The CLTOT of iohexol is a measure for the GFR. The CLR of PAH is used to estimate the ERPF. The filtration fraction (FF) was calculated by

[6] = Pharmacokinetics and renal clearance of a renal marker cocktail after IV bolus in 7-week-old male pigs; conditions: for CL renal: plasma and urine
Source text: as §1, §2, §3, §4, §5, §6

[7] = healthy human adults, ref Gross et al. (2001), cited from earlier work; for Net tubular secretion (CLSECR): pindolol given orally; for Net tubular reabsorption (CLREA): fluconazole given orally
porcine kidney = tested on: porcine kidney; design: method as in Gyrd-Hansen and Rasmussen (1970); conditions: in vivo, pigs; ref Gyrd-Hansen and Rasmussen (1970); cited from earlier work
plasma proteins [8] = test: In vitro plasma protein binding by ultrafiltration in spiked pig plasma; type: in vitro ADME; conditions: 39°C, fluconazole corrected for NSB
Procedure: Three aliquots of each concentration level were analyzed the same way as the pharmacokinetic (PK) study samples as described above to determine the total plasma concentration. Three other aliquots of each concentration were incubated for 1 h in a hot water bath of 39°C to replicate the pig's core body temperature and subsequently transferred onto an ultrafiltration device. […] Thereafter, the obtained filtrate was analyzed in the same way as the PK study samples to determine the unbound plasma concentration. The following equation was used to determine the unbound fraction in plasma: […]
The duration of centrifugation was reduced to 2.5 and 1.0 min for Microcon® and Amicon® filters, respectively.
Cunbound,corrected=Cunbound,measured/1-NSB

plasma proteins [9] = tested on: plasma proteins; design: method as in Humphrey et al., 1985; conditions: other species like humans, dogs, rats, and mice; ref Humphrey et al., 1985; cited from earlier work
[10] = design: method as in Gasthuys et al., 2017a; conditions: pigs of 7 weeks of age; ref Gasthuys et al., 2017a; cited from earlier work
[11] = 7-week-old male pigs, indexed to BSA, mean ± SD
[12] = corrected for estimated mean BSA
[13] = male, Landrace × Large White × Maximus (Seghers Hybrid), pig, plasma, iv
[14] = male, Landrace × Large White × Maximus (Seghers Hybrid), pig, plasma, iv, 0.5 mg/kg

Compound: CC(C)NCC(O)COc1cccc2[nH]ccc12 (centres unmarked) [pindolol]
Hemodynamical changes [1]: did not induce any hemodynamical changes
fu (plasma proteins [2]): 0.45
Decrease in GFR against baseline, average (GFR; IV administration): 4.37%
Decrease in GFR against baseline, range (GFR; IV administration): 0.96−9.43%
Effect on GFR against baseline (GFR; oral administration): no significant effect
Effect on ERPF and GFR (ERPF and GFR): slight but insignificant decrements in ERPF and GFR
Urinary excretion of unchanged pindolol [3]: 35%

Compound: Nc1ccc(C(=O)NCC(=O)O)cc1 [PAH, para-aminohippuric acid]
Nonrenal clearance as share of total drug elimination ([4]; ref Prescott et al., 1993): 15 to 30%
Plasma concentration at which saturation of the transport system is observed ([4]; ref Tett et al., 2003): 300 to 600 µg/mL
CLR [5]: 0.571 ± 0.146 L/h/kg
ERPF = CLR PAH [6, 11]: 226.77 ml/min/m² and 226.77 ± 62.45 ml/min/m²
ERPF = CLR PAH ([6]; 7-week-old male pigs, indexed to BW, mean ± SD): 9.51 ± 2.44 mL/min/kg
Urinary recovery ([6]; IV bolus, 7-week-old male pigs, fraction of dose recovered unchanged in urine, n = 6): 30.09 ± 5.06%
CLNR ([6]; IV bolus, 7-week-old male pigs, n = 6, CLTOT minus CLR, mean ± SD): 1.321 L/h/kg and 1.321 ± 0.226 L/h/kg
Ae, cumulative amount of unchanged compound recovered in the urine ([6]; IV bolus, 7-week-old male pigs, urine collected over 48 h, n = 6, mean ± SD): 29,512 ± 5751 µg
CLTOT ([6]; Table 1, IV bolus, 7-week-old male pigs, iohexol n = 8, others n = 6, mean ± SD): 1.892 ± 0.323 L/h/kg
Contribution of nonrenal elimination to total clearance ([6]; pigs): approximately 70%
PAH plasma concentrations reached ([6]; pigs, IV bolus 10 mg/kg BW): below 30 µg/ml
ERPF = CLR PAH [7, 12]: 247.09 ml/min/m² and 247.09 ± 77.25 ml/min/m²
ERPF = CLR PAH ([7]; corrected for mean BW 72 kg): 6.48 ± 2.02 mL/min/kg
Net tubular secretion (CLSECR) [7, 12]: 189.95 ml/min/m² and 189.95 ± 70.90 ml/min/m²
Net tubular secretion (CLSECR) ([7]; corrected for mean BW 72 kg): 4.99 mL/min/kg and 4.99 ± 1.86 mL/min/kg
Amount of PAH acetylated by the porcine kidney, mean (porcine kidney): −0.1%
Fu, free, non-protein bound, fraction (plasma proteins [8]): 1.0

Compound: OC(Cn1cncn1)(Cn1cncn1)c1ccc(F)cc1F [Fluconazole, fluconazole]
Plasma protein binding (plasma proteins [9]): ~ 12%
CLNR ([5]; male, Landrace × Large White × Maximus (Seghers Hybrid)): 0.0078 ± 0.00234 L/h/kg
CL renal ([6]; male, Landrace × Large White × Maximus (Seghers Hybrid), pig, iv, 0.5 mg/kg, CLR, IV bolus, 7-week-old male pigs, n = 6, Ae/AUC0→inf (fluconazole: Ae 48 h/AUC0→48h), mean ± SD): 0.0192 ± 0.003 L/h/kg
CL renal ([6]; male, Landrace × Large White × Maximus (Seghers Hybrid), pig, iv, 0.5 mg/kg, Renal clearance calculated over a time period of 24 h, pigs, IV 0.5 mg/kg, data up to 24 h): 0.0198 ± 0.0036 L/h/kg
CL renal ([6]; male, Landrace × Large White × Maximus (Seghers Hybrid), pig, iv, 0.5 mg/kg, Renal clearance estimated over 48 h, pigs, IV 0.5 mg/kg, data up to 48 h): 0.0192 ± 0.003 L/h/kg
clearance [6, 13]: 0.027 ± 0.00294 L/h/kg
Vd [6, 14]: 0.98 ± 0.04 L/kg
clearance [6, 14]: 0.027 ± 0.003 L/h/kg
half-life [6, 14]: 25.7 ± 2.75 h
k el [6, 14]: 8.33e-06 s⁻¹
Net tubular reabsorption (CLREA) [7, 12]: 49.21 ± 15.34 ml/min/m²
Net tubular reabsorption (CLREA) ([7]; corrected for mean BW 72 kg): 1.29 ± 0.40 mL/min/kg

Compound: CC(C)NC[C@H](O)COc1cccc2[nH]ccc12 [S-pindolol]
Fu, free, non-protein bound, fraction (plasma proteins [8]): 0.62 ± 0.00^3

Compound: CC(C)NC[C@@H](O)COc1cccc2[nH]ccc12 [R-pindolol]
Fu, free, non-protein bound, fraction (plasma proteins [8]): 0.19 ± 0.03^3

Compound: sinistrin
GFR (renal clearance of sinistrin) [7, 12]: 68.78 ± 21.16^2 ml/min/m²
GFR (renal clearance of sinistrin) ([7]; corrected for mean BW 72 kg): 1.81 ± 0.56^2 ml/min/kg

GFR = CLTOT IOH [6, 11]: 97.87 ± 16.05 ml/min/m²
clearance ([6]; male, Landrace × Large White × Maximus (Seghers Hybrid), pig, plasma, intravenous, 64.7 mg/kg BW): 0.247 ± 0.0324 L/h/kg
clearance [6, 13]: 0.247 ± 0.0324 L/h/kg
Compound: CC(=O)N(CC(O)CO)c1c(I)c(C(=O)NCC(O)CO)c(I)c(C(=O)NCC(O)CO)c1I (centres unmarked) [Iohexol, iohexol]
Iohexol clearance [10]: 100.92 ± 20.84 ml/min/m²
